Data on nine molecules can be found in patent US5235036A, “CRF analogs” (The Salk Institute for Biological Studies, priority 1991, dated 1993).

“Also recorded” adds a separate entry of the source. Read-outs that look alike come from different tables or passages of the source. Where a SMILES comes first, the peptide text is derived from it. Where no end group is shown, it is not given here. [ ]: non-standard residue; d: D form.

A short description of test [1]: lowering of blood pressure when injected peripherally. The note with it: e.g. intravenously. It counts as in vivo.
Test [2] relates to secretion of ACTH and β-END-LI. Briefly: in vivo testing: stimulation of the secretion of ACTH and β-END-LI. As to conditions: test system not stated in the example. The protocol:
(§1) The synthetic peptides [Ala^20 ]-oCRF and [Ala^39 ]-oCRF are examined for their effects on the secretion of ACTH and β-endorphin in vitro and also in vivo. The potency of synthetic oCRF analogs to stimulate the secretion of ACTH and β-endorphin by cultured rat pituitary cells is measured using the procedure as generally set forth in Endocrinology, 91, 562 (1972) and compared against synthetic oCRF. [Ala^20 ]-oCRF is considered to be about 2 to 4 times as potent as the native hormone. […] In vivo testing which can be carried out using the general procedure set forth in C. Rivier et al., Science.

The conditions of test [3]: background statement; mammals; cited from earlier work.
Test [4] relates to ACTH and β-endorphin-like activities (β-END-LI). As to conditions: in vitro and in vivo; background statement; cited from earlier work.
Test [5] relates to cultured rat pituitary cells. Briefly: secretion of ACTH and β-endorphin by cultured rat pituitary cells, compared against synthetic oCRF. It counts as cell-based. The protocol: as §1
The test system of another test is gastric acid production. The note with it: background statement; cited from earlier work.

In the case of `CC[C@H](C)[C@H](NC(=O)[C@@H](NC(=O)[C@H](CCC(=O)O)NC(=O)[C@H](CCSC)NC(=O)[C@H](CC(C)C)NC(=O)[C@H](CCCCN)NC(=O)[C@H](CCCNC(=N)N)NC(=O)[C@H](CC(N)=O)NC(=O)[C@H](CO)NC(=O)[C@H](Cc1c[nH]cn1)NC(=O)[C@H](C)NC(=O)[C@H](CCC(N)=O)NC(=O)[C@H](CCC(N)=O)NC(=O)[C@H](C)NC(=O)[C@H](CC(C)C)NC(=O)[C@H](CCC(N)=O)NC(=O)[C@H](CCC(=O)O)NC(=O)[C@H](C)NC(=O)[C@H](CCCNC(=N)N)NC(=O)[C@H](C)NC(=O)[C@H](CCSC)NC(=O)[C@H](C)NC(=O)[C@H](CC(C)C)NC(=O)[C@@H](NC(=O)[C@H](CCC(=O)O)NC(=O)[C@H](CCCNC(=N)N)NC(=O)[C@H](CC(C)C)NC(=O)[C@H](CC(C)C)NC(=O)[C@H](Cc1c[nH]cn1)NC(=O)[C@@H](Cc1ccccc1)NC(=O)[C@@H](NC(=O)[C@H](CC(C)C)NC(=O)[C@H](CC(=O)O)NC(=O)[C@H](CC(C)C)NC(=O)[C@H](CO)NC(=O)[C@@H](NC(=O)[C@@H]1CCCN1C(=O)[C@@H]1CCCN1C(=O)[C@@H](N)CCC(=O)O)[C@@H](C)CC)[C@@H](C)O)C(C)C)[C@@H](C)CC)C(N)=O` [[D-Phe^12, Ala^20]-rCRF(3-41)] (H-EPPISLDLT[dF]HLLREVLAMARAEQLAQQAHSNRKLMEII-NH2), the “lowering of blood pressure” value in test [1] is given as “causes significant lowering of blood pressure”. Besides, in test [2], the “biopotency / stimulation of the secretion of ACTH and β-END-LI” value (shortened to “biopotency / stimulation”) was “biopotent”.

For the molecule “SEEPPISLDLTFHLLREVLAMARAEQLAQQAHSNRKLMEII [[Ala^20]-rCRF]”, the “lowering of blood pressure” value in test [1] is “causes significant lowering of blood pressure”. The “biopotency / stimulation” value in test [2] was “biopotent and stimulates the secretion of ACTH and β-END-LI”.

“SEEPPISLDLTFHLLREVLEMARAEQLAQQAHSNRKLMAII [[Ala^39 -rCRF]”: the “lowering of blood pressure” value in test [1] is recorded as “causes significant lowering of blood pressure”. The “biopotency / stimulation” value in test [2] is “biopotent, stimulates the secretion of ACTH and β-END-LI”.

“SQEPPISLDLTFHLLREMLEMAKAEQEAEQAALNRLLLEEA [AHC]”: the “lowering of blood pressure” value in test [3] is reported as “substantially lower blood pressure”. Moreover, the “stimulation of ACTH and β-endorphin secretion / β-END-LI” value in test [4] is “stimulate ACTH and β-endorphin-like activities (β-END-LI) in vitro and in vivo”.

On to “SQEPPISLDLTFHLLREVLAMTKADQLAQQAHSNRKLLAIA [[Ala^20,29]-oCRF]”, for which the “lowering of blood pressure” value in test [1] was “lowers blood pressure”. The “biopotency / stimulation” value in test [2] is recorded as “biopotent”.

In the case of “SQEPPISLDLTFHLLREVLAMTKADQLAQQAHSNRKLLDIA [[Ala^20]-oCRF]”, in test [1], the “lowering of blood pressure” value is “a significant lowering of blood pressure”.

In the case of “SQEPPISLDLTFHLLREVLEMTKADQLAQQAHSNRKLLAIA [[Ala^39]-oCRF]”, the “increase in biopotency in vitro over the native hormone” value in test [5] is on record as roughly 85%. Moreover, the “lowering of blood pressure” value in test [1] is recorded as “a significant lowering of blood pressure”.

As for “Ser-Gln-Glu-Pro-Pro-Ile-Ser-Leu-Asp-Leu-Thr-Phe-His-Leu-Leu-Arg-Glu-Val-Leu-Glu-Met-Thr-Lys-Ala-Asp-Gln-Leu-Ala-Gln-Gln-Ala-His-Ser-Asn-Arg Lys-Leu-Leu-Asp-Ile-Ala (SQEPPISLDLTFHLLREVLEMTKADQLAQQAHSNRKLLDIA) [oCRF]”, the “lowering of blood pressure” value in test [3] is “lowers blood pressure in mammals; also recorded: substantially lower blood pressure”. In the test on gastric acid production, the gastric acid production result was “inhibits gastric acid production”. Further, the “stimulation of ACTH and β-endorphin secretion / β-END-LI” value in test [4] is “stimulates the secretion of ACTH and β-endorphin; also recorded: stimulate ACTH and β-endorphin-like activities (β-END-LI) in vitro and in vivo”.

As to “Ser-Glu-Glu-Pro-Pro-Ile-Ser-Leu-Asp-Leu-Thr-Phe-His-Leu-Leu-Arg-Glu-Val-Leu-Glu-Met-Ala-Arg-Ala-Glu-Gln-Leu-Ala-Gln-Gln-Ala-His-Ser-Asn-Arg -Lys-Leu-Met-Glu-Ile-Ile (SEEPPISLDLTFHLLREVLEMARAEQLAQQAHSNRKLMEII) [rCRF]”, in test [3], the “lowering of blood pressure” value is recorded as “substantially lower blood pressure”. Also, in test [4], the “stimulation of ACTH and β-endorphin secretion / β-END-LI” value is “stimulate ACTH and β-endorphin-like activities (β-END-LI) in vitro and in vivo”.
